Results: PubChem BioAssay AID720512 (Broad Institute, 2013)
Activity calls are given as the source filed them. No rule for the calls is given here.

These compounds were tested against Toxin B (TcdB) glycohydrolase, Clostridioides difficile 630 (assay: TcdB glycohydrolase inhibitors, dose response, biochemical, cherry-pick, plate reader (AID 720512)). Conditions: recombinant TcdB glycohydrolase activity.

Row | SMILES | AC50
1 | Cc1cc(C(=O)NNc2ccc(C)c(C)c2)no1 | 2.24 µM
2 | ONC(=Nc1ccccc1Cl)c1ccccc1Cl | > 39 µM (inactive)
3 | CCCNC(=O)C[C@H]1CC[C@@H]2[C@@H](COc3ccc(NC(=O)c4ccc(Cl)cc4)cc3C(=O)N2C)O1 | > 39 µM (inactive)
4 | Oc1ccc(/C=N/N2CCN(Cc3ccccc3)CC2)cc1 | > 39 µM (inactive)
5 | O=S(=O)(Oc1ccccc1/C=N/n1cnnc1)c1ccccc1 | > 39 µM (inactive)
6 | CCOc1ccccc1-n1c(=S)sc2c(=O)n(-c3ccc(F)cc3)c(SCC(=O)O)nc21 | > 39 µM (inactive)
7 | Oc1ccc(CCc2ccccn2)cc1 | > 39 µM (inactive)
8 | CNc1cncc(-c2ccc(O)cc2)n1 | > 39 µM (inactive)
9 | COc1ccc2nc(NNC(=O)C3COc4ccccc4O3)sc2c1 (centres undefined) | 3.04 µM

Same assay, conditions: recombinant TcdB glycohydrolase activity, at 10 µM (top of the series)

Row | SMILES | activity change, negative = inhibition
10 | COc1ccc2[nH]c3c(=O)n(CCCCC(=O)NCCN4CCCC4)c(=S)[nH]c3c2c1 | inactive

Same assay, conditions: recombinant TcdB glycohydrolase activity, at 19.5 µM (top of the series)

Row | SMILES | activity change, negative = inhibition
11 | O=S(=O)(Nc1ccc(O)cc1)c1cccc2cccnc12 | inactive
12 | Cn1c(=O)c2c(nc(N3CCOCC3)n2CCSc2ncccn2)n(C)c1=O | inactive
13 | CC1(C)CC(=O)C(C=Nc2ccc(O)cc2)=C(O)C1 | inactive
14 | COc1cc(NC(=O)CSc2nc3[nH]ncc3c(=O)n2-c2ccccc2C)cc(OC)c1OC | inactive
15 | CC(Sc1nc(N)cc(=O)[nH]1)C(=O)NCC(=O)Nc1ccc(F)c(F)c1F (centres undefined) | inactive
16 | O=C(N/N=C/c1ccc(O)c(O)c1)C1CC1 | inactive
17 | CC(N)C(=O)NC(C(=O)N1CCCC1C(=O)NC(c1ccccc1)c1ccccc1)C(C)C (centres undefined) | inactive
18 | Fc1ccccc1Nc1n[nH]c(=S)s1 | inactive
19 | CN1C(=O)CSc2ccc(NC(=O)N3CCc4ccccc43)cc21 | inactive
20 | Cc1ccc(C2=NS(=O)(=O)N(C)C(C(=O)NCc3cccs3)=C2)cc1 | inactive
21 | CC(C)Cc1[nH]c(=O)c(C#N)c2c1CCC2 | inactive
22 | Cc1ccc(C(=O)NC(=S)NNC(=O)CC#N)cc1 | inactive
23 | CC12CCC3C(=CCc4cc(O)ccc43)C1CC(=NO)C2O (centres undefined) | inactive
24 | Oc1ccc2c(ccc3[nH]cnc32)c1 | inactive
25 | CCCCNS(=O)(=O)c1ccc(OCC(=O)OC)cc1 | inactive
26 | NNC(=O)CCc1nc2ccc(O)cc2[nH]1 | inactive
27 | O=C(O)c1c(C(=O)O)c(-c2ccc(Br)cc2)n2c1CSC2 | inactive
28 | CCOCC(=O)Nc1cc(Cl)ccc1C | inactive
29 | Cc1ccc(-c2csc(NC(=O)/C=C/c3ccco3)c2C(=O)O)cc1 | inactive
30 | Cc1ccc(SCCC(=O)N/N=C/c2cccnc2)cc1 | inactive
31 | CC(=O)Nc1ccc(NC(=O)Cc2ccc(S(=O)(=O)N3CCCCC3)cc2)cc1 | inactive
32 | CCCNC(=O)C1CCN(S(=O)(=O)c2c(C)noc2/C=C\c2ccc(OC)cc2)CC1 | inactive
33 | COc1ccc(Cl)cc1-n1c(=S)sc2c(=O)n(-c3ccc(F)cc3)c(SCC(=O)O)nc21 | inactive
34 | O=C(CSc1cccc2cccnc12)N/N=C/c1ccc(F)cc1 | inactive
35 | COc1cc2nncc(SC)c2cc1OC | inactive

Row | SMILES | activity change, negative = inhibition
36 | CC(=O)Nc1ccc(S(=O)(=O)Nc2nc3ccccc3nc2-n2ccc(=NC(=O)c3ccc(F)cc3)cc2)cc1 | inactive
37 | CN1C(=O)c2cc(NC(=O)c3cccc(F)c3)ccc2OC[C@@H]2O[C@@H](CC(=O)NCC3CCCCC3)CC[C@H]21 | inactive
38 | O=C(CSc1ccccc1)Nc1cc(S(=O)(=O)N2CCOCC2)ccc1N1CCOCC1 | inactive
39 | Cc1scc(C(=O)N2CCN(c3ccc(Cl)cc3)CC2)c1C | inactive
40 | Cn1ncc(Br)c1C(=O)N/N=C/c1cccc(OC2CSC2)c1 | inactive
41 | Cc1ccc(S(=O)(=O)Oc2cccc(/C=N/Nc3ccc(C(=O)O)cc3)c2)cc1 | inactive
42 | Cc1nc(S(=O)(=O)N(C)Cc2ccccc2)c(C#N)c(C)c1Cl | inactive
43 | Cc1ccc(/C=N/NC(=O)c2cccc(S(=O)(=O)Nc3ccccc3Cl)c2)o1 | inactive
44 | Cc1cc(N/N=C/c2ccc(O)cc2O)nc(N2CCOCC2)n1 | inactive
45 | Cc1ccc(S(=O)(=O)N2CCCC2C(=O)Nc2ccc(O)cc2)cc1 (centres undefined) | inactive
46 | Cc1cccc(/C=C/c2onc(C)c2S(=O)(=O)N2CCC(C(=O)N3CCCCC3)CC2)c1 | inactive
47 | CCN(CCN(C)C)C(=O)C1CCN(S(=O)(=O)c2c(C)noc2/C=C/c2ccccc2F)CC1 | inactive
48 | COc1ccc(/C=C/c2onc(C)c2S(=O)(=O)N2CCC(C(=O)N3CCC(C)CC3)CC2)cc1 | inactive
49 | Cc1ccc(S(=O)(=O)N2CC(CO)=CCC2c2ccccc2)cc1 (centres undefined) | inactive
50 | Cc1cnc([N+](=O)[O-])n1CCOC(=O)NC(=O)c1ccc(F)cc1 | inactive
51 | NC(=O)Nc1ccc(Nc2ccccc2)cc1 | inactive
52 | O=C(O)c1ccc(-n2nnc3ccccc32)c([N+](=O)[O-])c1 | inactive
53 | COc1cc(Cn2nnc3ccccc32)ccc1O | inactive
54 | S=c1[nH]nc2ccccn12 | inactive
55 | Cc1ccc2c(C)c3ccc4ccccc4c3c[n+]2c1 | inactive
56 | Cc1ccc(NCCN(C)C)c2c(=O)c3cc(O)ccc3sc12 | inactive
57 | COc1ccc(-c2cnc3c(c2)C(=O)N([C@@H](C)CO)C[C@H](C)[C@H](CN(C)C(=O)C2CCCCC2)O3)cc1 | inactive
58 | CCOC(=O)c1ccc(NC(=O)Oc2cc(C)c(Cl)cc2C(C)C)cc1 | inactive
59 | COc1ccc(NC(=O)c2cc(C)nc3ccccc23)c(OC)c1 | inactive
60 | CC1C(=O)NN=C1c1ccc([N+](=O)[O-])cc1 (centres undefined) | inactive

Row | SMILES | activity change, negative = inhibition
61 | O=C(Nc1ccc(O)cc1)/C(=C\c1ccncc1)NC(=O)c1ccccc1 | inactive
62 | CCS(=O)(=O)c1ccc2oc(Nc3ccc(C(C)(C)C)cc3)nc2c1 | inactive
63 | O=P1(Oc2ccccc2)OCCCS1 (centres undefined) | inactive
64 | Cc1c(CCCC(=O)O)sc(N)c1C(=O)c1cccc(C(F)(F)F)c1 | inactive
65 | CCOC(=O)c1c(C)[nH]c(C)c1C(=O)COC(=O)/C=C/c1ccco1 | inactive
66 | COc1ccc(NS(=O)(=O)c2cc(N=Nc3c(O)[nH]c(=O)[nH]c3=O)ccc2Cl)cc1 | inactive
67 | Cn1cc(C(CO)Cc2ccccc2)c2ccccc21 (centres undefined) | inactive
68 | CC[C@H](C)[C@@H]1NC(=O)c2cc([N+](=O)[O-])cc(I)c2NCC[C@@H](C(N)=O)NC(=O)[C@H](CCCN=C(N)N)NC1=O | inactive
69 | Cc1ccc2c(c1)-c1c(cnn1CC(=O)NC(C)CCc1ccco1)CO2 (centres undefined) | inactive
70 | COc1ccc(/C=N/n2c(-c3cc(C)[nH]n3)n[nH]c2=S)cc1OC | inactive
71 | Cc1ccc(C)c(CN2C(=O)COc3ccc(C(=O)c4ccccc4C(=O)O)cc32)c1 | inactive
72 | COc1ccc(NC(=O)Cn2cnc3sc(C)c(S(=O)(=O)N4CCOCC4)c3c2=O)c(OC)c1 | inactive
73 | COc1cccc2cc(/C(C)=N/NC(=O)c3ccco3)oc12 | inactive
74 | CCOC(=O)N1CCN(C(=S)NC(=O)c2ccc(F)c(F)c2)CC1 | inactive
75 | CN(c1ccc(O)cc1)c1nc(-c2cccnc2)cs1 | inactive
76 | COc1cc(/C=N/NC(=O)CCN2CCCCC2)ccc1O | inactive
77 | CC1(C)CCC/C(=C\c2ccccc2)C1=O | inactive
78 | CCc1ccccc1NC(=S)N(Cc1ccc(C(=O)O)cc1)Cc1ccc(OC)c(OC)c1 | inactive
79 | O=C(O)c1ccc(/C=N/NC(=S)NCCN2CCOCC2)cc1 | inactive
80 | COc1ccccc1-c1cn[nH]c1-c1ccc(O)cc1O | inactive
81 | Cc1cc(=O)oc2c(N)c(O)ccc12 | inactive
82 | O=C(CC(=O)N/N=C/c1ccc(O)cc1)N/N=C/c1ccc(O)cc1 | inactive
83 | COc1ccc(-c2cn3cc(C)ccc3n2)cc1F | inactive
84 | COc1nc(C)cc(C)c1S(=O)(=O)c1ccc(Cl)cc1 | inactive
